Laboratory results as given in patent publication US20110160440A1, “Cab Molecules” (GENENCOR INTERNATIONAL, INC., priority 2003, published 2011).

Tests used:
[1] = system: LS174T human colorectal tumor; test: Anti-tumor activity of CAB1.2 plus C-Mel in LS174T human colorectal model in SCID mice; type: in vivo, CB17-SCID mice
Text: (§1) Female CB17-SCID mice (8-10 weeks, Taconic Labs) were challenged subcutaneously (SC) with 2×10^6 LS174T cells suspended in serum free DMEM in a volume of 100 microliters (Medimmune ACUC protocol # ACF 037). When mean tumor volumes were approximately 100-150 mm^3, animals were randomly distributed into treatment groups. Animals without detectable tumors or excessively large tumors (volume >300 mm^3) were excluded.
Tumor-bearing animals received CAB1.2 in PBS intravenously (IV) at doses of 1 or 2.5 mg/kg in an injection volume of 100 microliters in PBS. C-Mel stored at −70° C. as a 100 mg/ml frozen solution in DMSO) was formulated fresh (15 mg/ml, in a 5:4 ratio of 0.1M Na bicarbonate:PBS) and administered at a dose of 150 mg/kg on an average weight basis, IV bolus, via the tail vein in an injection volume of 200 microliters to all treatment groups receiving prodrug. Melphalan was formulated fresh (2 mg/ml in 20% DMSO/PBS) and administered intraperitoneally in an injection volume of 100 microliters. Briefly, animals administered CAB1.2 at 2.5 mg/kg were administered C-Mel 18 or 36 hours after CAB1.2 treatment. […]
(§2) Animals were monitored daily for general appearance, animal weights taken once weekly and tumor measurements taken twice weekly. Data was collected and mean tumor volumes for all treatment groups determined±SEM, and plotted for analysis (days post tumor challenge vs tumor volume).

[2] = Treatment-related toxicity (weight loss, animal deaths) in LS174T SCID mouse study; type: in vivo, CB17-SCID mice; settings: for weight loss: melphalan 10 mg/kg
Text: as §1
Tumor-bearing animals received CAB1.2 in PBS intravenously (IV) at doses of 1 or 2.5 mg/kg in an injection volume of 100 microliters in PBS. C-Mel stored at −70° C. as a 100 mg/ml frozen solution in DMSO) was formulated fresh (15 mg/ml, in a 5:4 ratio of 0.1M Na bicarbonate:PBS) and administered at a dose of 150 mg/kg on an average weight basis, IV bolus, via the tail vein in an injection volume of 200 microliters to all treatment groups receiving prodrug. Melphalan was formulated fresh (2 mg/ml in 20% DMSO/PBS) and administered intraperitoneally in an injection volume of 100 microliters. Briefly, animals administered CAB1.2 at 2.5 mg/kg were administered C-Mel 18 or 36 hours after CAB1.2 treatment. Animals administered CAB1.2 at 1 mg/kg were administered C-Mel 24 hours after CAB1.2 treatment. Control groups were as follows: untreated, 2.5 mg/kg CAB1.2 alone, 10 mg/kg melphalan, C-Mel alone, 2.5 mg/kg P97ADEPT followed by C-Mel 18 hours later, 1.5 mg/kg Beta-lactamase (BLA, 1.5 mg/kg, which was equimolar to the 2.5 mg/kg CAB1.2 BLA concentrations used), followed by C-Mel 18 hours later. Treatments were repeated once weekly for 3 cycles. Tumor measurements (in millimeters) were taken twice weekly; the investigator measuring the tumors was blinded to the treatment groups.
as §2
The average weights of individual treatment groups taken on day 9, when the first dose of C-Mel was administered, was used as the baseline weight of tumor-bearing animals for weight loss determinations within each treatment group. […] One animal was lost at day 14 due to procedural error during treatment. Toxicity-related deaths were noted as follows: 2 animals found dead on day 27, 3 animals each found dead on days 30 and 34, for a total of 8/9 toxicity-related deaths on the study for the 18 hr CAB1.2/C-Mel treatment group. […] One animal was sacrificed on day 12 due to excessive necrosis at the tumor site. […]

With `N[C@@H](Cc1ccc(N(CCCl)CCCl)cc1)C(=O)O` [Melphalan] the “inhibition vs untreated control” value ([1]; day 34, melphalan 10 mg/kg intraperitoneally (MTD), once weekly 3 cycles) was 34%, the tumor regressions ([1]; melphalan 10 mg/kg treatment group) was “no tumor regressions occurred” and the weight loss ([2]; day 16) was 11%. The weight loss ([2]; day 24) was 12.5%, the “toxicity-related deaths on the study” value ([2]; melphalan alone 10 mg/kg) was 3/10 and the animal deaths ([2]; melphalan at maximum tolerated dose (MTD)) was 30%.
